Experimental data as given in PMC8345109, “Optimization of New Catalytic Topoisomerase II Inhibitors as an Anti-Cancer Therapy” (Cancers, 2021).
In brackets after ≈: the same amount, converted by molar mass. Where two headings read alike, the source gives them in different places.

How the values were obtained:
Solubility by LC/MS/MS = assay type: physicochemical; conditions: kinetic from dmso stock
Procedure: Stock solutions of the tested compounds at 50 mM in dimethyl sulfoxide (DMSO) were diluted 50-fold in methanol (MeOH), Roswell Park Memorial Institute-1640 (RPMI1640), plus 5% charcoal-stripped serum (CSS) from Sigma-Aldrich (media) and phosphate-buffered saline (PBS), and vortexed at room temperature for 1 h at 800 rpm. The resulting solutions were centrifuged at 20,000× g for 5 min, and the saturated supernatants were diluted 40-fold in acetonitrile. The resultant solutions were subjected to LC/MS/MS to determine the solubility.

TOP2B [1] = target: T1, TOP2B (Homo sapiens, UniProt Q02880); assay: K-DNA decatenation assay, TOP2B; assay type: biochemical; conditions: 0.01-200 uM, three biological repeats
Procedure: (§1) Figure 3 T637 and T638 are TOP2B inhibitors. (A) K-DNA decatenation assays and (B) supercoiled plasmid DNA relaxation assays are used to measure TOP2B activity in the presence of 0.01–200 uM T637 or T638. Three biological repeats were performed with each concentration of the compounds, and the densitometry of the D-DNA bands from (A) and the SC bands from (B) was used to establish an inhibition curve for IC50 calculation.

TOP2B [2] = target: T1, TOP2B; assay: Supercoiled plasmid DNA relaxation assay, TOP2B; assay type: biochemical; conditions: 0.01-200 uM, three biological repeats
Procedure: as §1

salmon sperm DNA = assay: Ethidium bromide displacement assay; assay type: binding; conditions: 100 µg/mL salmon sperm DNA, 2 µg/mL ethidium bromide
Procedure: (§2) (A) Ethidium bromide displacement assays were performed by mixing 100 µg/mL salmon sperm DNA with −/+2 µg/mL ethidium bromide and the indicated compounds. Reactions were subjected to fluorescence emission of 590 nm and excitation of 535 nm. Obtained signals were detected by using the Multimode Microplate Reader (Infinite F500). […] Reactions were subjected to 5–20% LED/excitation power and medium MST power using premium capillaries. Obtained signals were detected by using the Monolith NT.115 system. The change in thermophoresis is expressed as the change in the normalized fluorescence (ΔFnorm). MST assays were repeated with two control compounds, enzalutamide (Enza) and merbarone.

human TOP2A(431-1193) [3] = target: T2, human TOP2A(431-1193) (Homo sapiens, UniProt P11388); assay: Microscale thermophoresis (MST) binding assay; conditions: 5 nM NT647-labelled TOP2A(431-1193), 0.015-500 µM compound; read-out: Kd, direct TOP2-compound binding (MST)
T2 construct: 6xHis (N); made in house; host or cells: E. coli BL21 (DE3)
Procedure: It was transformed into BL21 (DE3) E. coli cells and induced by 0.5 mM IPTG for 16 h at 16 °C. Cells were lysed by sonication and protein purification was by chromatography with the Ni-NTA beads (Invitrogen), followed by a size exclusion chromatography (Superdex 200). […] A serial dilution of the inhibitors was prepared with 100% DMSO and subsequently mixed with the labeled fluorescent protein in the assay buffer (20 mM Tris pH 8.0, 100 mM NaCl, 0.1% NP40, 0.2 mM TCEP, and 0.1 mM PMSF) at the final concentrations of 0.015–500 uM. The final concentration of the protein was 5 nM. The labeled protein and small molecules mix were allowed to incubate in the dark at room temperature for 5 min before filling the capillaries. MST assays were performed with 5–20% LED/excitation power and medium MST power using premium capillaries for Monolith NT.115. The data for the estimation of Kd were analyzed using MO Affinity Analysis software from Nanotemper.
as §2

human TOP2A(431-1193) [4] = target: T2, human TOP2A(431-1193); assay: Fluorescence polarization (FP) assay of TOP2A-DNA interaction; assay type: binding; conditions: 500 nM protein, 0.01-200 µM compound
Procedure: Fluorescent polarization assay was performed in Corning® Low Volume 384-well Black Flat Bottom microplate. […] Triplicate reactions were transferred onto the microplate and incubated at room temperature for 20 min. Fluorescence polarization (FP) measurements were taken by Tecan Infinite F500 with the excitation wavelength of 485 nm and emission wavelength of 535 nm.
(§3) (A) EMSA was performed by purified full-length TOP2A or TOP2B proteins at a contraction of 300 nM with IRDay700 labeled 5ZRF DNA oligo at a concentration of 100 nM in the presence of −/+200 µM of ICRF193, T60, T637, and T638. […] Reactions were subjected to fluorescence […], which were detected by using the Multimode Microplate Reader (Infinite F500). (D) DNA cleavage assays were performed using full-length human TOP2A and TOP2B incubated with the supercoiled pHOT plasmid in the presence of 200 µM of etoposide plus 1, 100, or 200 µM of ICRF193, T60, T637, and T638. Reactions were separated on a DNA gel with ethidium bromide. All experiments were repeated three times, and one representative image was shown. Note: N, nicked DNA; L, linear DNA; and SC, supercoiled DNA.

in vitro = conditions: mouse, liver microsomes, pH 7.4
Procedure: The reaction was initiated by adding NADPH, followed by incubation at 37 °C. […] The samples were then vortexed and centrifuged at 16,000 rpm for 10 min at 4 °C. The supernatants were collected and analyzed by LC/MS/MS to determine the remaining percentage and the half-life (t1/2) by integrating compound peaks and fitting the resulting AUC values and time points to a one-phase decay equation.

[5] = test system: cervical cancer line Hela; assay: Hela cell growth (Incucyte); conditions: Homo sapiens, 120 h, read-out: Cell growth inhibition
Procedure: (§4) (A) K562 cells were treated with 0, 0.5, 1, 5, 10, 15, and 20 uM of T60 or 0, 0.5, 1, 5, 10, 15, 20, 50, and 100 uM of T637 and T638 for 24, 48, or 72 h. […] (B) NCI-H446 small cell lung cancer line and Hela cervical cancer line were treated with 0, 0.5, 1, 5, 10, 15, and 20 uM of T60 or 0, 0.5, 1, 5, 10, 15, 20, 50, and 100 uM of T637 and T638 for five days. Cell growth rates were measured by using Incucyte^TM. (C) K562 cells were treated with 0, 5, 10, 15, and 20 uM of T60, T637, or T638 for 48 h. Cytotoxicity was evaluated by measuring the LDH levels from the culture media. (D) K562 cells were treated with the vehicle or 10–20 µM of etoposide, T60, T637, or T638 for 4 h. Immunoblotting measured p-H2AXγ levels in cells with vinculin as a loading control.

K562 cells = assay: Cytotoxicity by LDH release; conditions: K562, 0-20 uM, 48 h
Procedure: as §4

[6] = test system: small cell lung cancer line NCI-H446; assay: NCI-H446 cell growth (Incucyte); conditions: Homo sapiens, NCI-H446, 120 h, read-out: Cell growth inhibition
Procedure: as §4

K562 leukemia cells = assay: K562 cell proliferation (MTS assay); conditions: K562, up to 100 uM
Procedure: as §4

full-length TOP2B [7] = target: T3, full-length TOP2B (Homo sapiens, UniProt Q02880); assay: EMSA, full-length TOP2B with 5ZRF DNA oligo; assay type: binding; parameters: EMSA was performed by purified full-length TOP2A or TOP2B proteins; conditions: 200 µM compound, 300 nM protein, 100 nM oligo
Procedure: as §3

full-length TOP2A = full-length TOP2A (Homo sapiens, UniProt P11388); assay: DNA cleavage assay, TOP2A; assay type: biochemical; parameters: DNA cleavage assays were performed using full-length human TOP2A and TOP2B; conditions: 200 µM etoposide plus 1, 100 or 200 µM compound, pHOT plasmid
Procedure: as §3

full-length TOP2B [8] = target: T3, full-length TOP2B; assay: DNA cleavage assay, TOP2B; assay type: biochemical; parameters: DNA cleavage assays were performed using full-length human TOP2A and TOP2B; conditions: 200 µM etoposide plus 1, 100 or 200 µM compound, pHOT plasmid
Procedure: as §3

T3 sequence (Q02880 whole entry): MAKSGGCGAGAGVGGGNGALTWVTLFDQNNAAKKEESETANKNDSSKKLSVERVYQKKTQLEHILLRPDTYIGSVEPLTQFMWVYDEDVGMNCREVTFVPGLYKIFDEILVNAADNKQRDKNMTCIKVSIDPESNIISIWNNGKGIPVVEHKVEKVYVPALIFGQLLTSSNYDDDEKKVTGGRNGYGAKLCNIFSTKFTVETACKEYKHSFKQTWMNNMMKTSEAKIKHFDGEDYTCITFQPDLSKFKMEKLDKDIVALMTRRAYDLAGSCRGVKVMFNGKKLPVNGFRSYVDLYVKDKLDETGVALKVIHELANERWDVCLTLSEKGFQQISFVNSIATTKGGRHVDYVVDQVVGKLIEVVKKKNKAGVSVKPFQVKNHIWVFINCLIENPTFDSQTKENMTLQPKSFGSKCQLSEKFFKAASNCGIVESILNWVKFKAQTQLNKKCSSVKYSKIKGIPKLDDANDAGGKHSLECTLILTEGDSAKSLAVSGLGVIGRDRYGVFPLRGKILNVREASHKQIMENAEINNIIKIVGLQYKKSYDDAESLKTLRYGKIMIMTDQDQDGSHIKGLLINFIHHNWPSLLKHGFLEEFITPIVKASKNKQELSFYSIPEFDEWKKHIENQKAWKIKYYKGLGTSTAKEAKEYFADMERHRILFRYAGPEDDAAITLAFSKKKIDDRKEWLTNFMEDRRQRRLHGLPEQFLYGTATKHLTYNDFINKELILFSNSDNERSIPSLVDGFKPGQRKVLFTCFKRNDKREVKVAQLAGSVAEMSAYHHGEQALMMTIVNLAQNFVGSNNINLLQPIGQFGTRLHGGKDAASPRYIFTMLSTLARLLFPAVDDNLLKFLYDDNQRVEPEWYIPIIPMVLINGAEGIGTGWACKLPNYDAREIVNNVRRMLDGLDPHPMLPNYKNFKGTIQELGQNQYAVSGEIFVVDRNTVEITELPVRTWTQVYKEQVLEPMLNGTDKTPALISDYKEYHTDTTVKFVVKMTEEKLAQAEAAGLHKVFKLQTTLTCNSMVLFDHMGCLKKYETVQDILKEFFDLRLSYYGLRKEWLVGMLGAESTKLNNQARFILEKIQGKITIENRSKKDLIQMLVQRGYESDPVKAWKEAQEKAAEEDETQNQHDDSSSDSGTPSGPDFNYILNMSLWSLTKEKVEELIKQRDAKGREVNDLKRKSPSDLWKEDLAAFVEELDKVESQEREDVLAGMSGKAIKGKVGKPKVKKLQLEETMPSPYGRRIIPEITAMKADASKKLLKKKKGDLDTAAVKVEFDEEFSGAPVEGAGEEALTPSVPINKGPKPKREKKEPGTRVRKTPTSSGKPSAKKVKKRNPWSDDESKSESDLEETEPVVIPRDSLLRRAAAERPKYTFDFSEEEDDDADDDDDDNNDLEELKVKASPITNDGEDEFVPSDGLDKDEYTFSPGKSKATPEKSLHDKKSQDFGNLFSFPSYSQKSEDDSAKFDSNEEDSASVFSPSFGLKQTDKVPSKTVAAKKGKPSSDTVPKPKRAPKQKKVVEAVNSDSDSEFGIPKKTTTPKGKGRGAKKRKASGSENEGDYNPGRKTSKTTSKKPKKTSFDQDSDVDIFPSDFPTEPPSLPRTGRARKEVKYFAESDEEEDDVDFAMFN
T1 sequence (Q02880 whole entry): as above
T2 sequence (P11388 431-1193): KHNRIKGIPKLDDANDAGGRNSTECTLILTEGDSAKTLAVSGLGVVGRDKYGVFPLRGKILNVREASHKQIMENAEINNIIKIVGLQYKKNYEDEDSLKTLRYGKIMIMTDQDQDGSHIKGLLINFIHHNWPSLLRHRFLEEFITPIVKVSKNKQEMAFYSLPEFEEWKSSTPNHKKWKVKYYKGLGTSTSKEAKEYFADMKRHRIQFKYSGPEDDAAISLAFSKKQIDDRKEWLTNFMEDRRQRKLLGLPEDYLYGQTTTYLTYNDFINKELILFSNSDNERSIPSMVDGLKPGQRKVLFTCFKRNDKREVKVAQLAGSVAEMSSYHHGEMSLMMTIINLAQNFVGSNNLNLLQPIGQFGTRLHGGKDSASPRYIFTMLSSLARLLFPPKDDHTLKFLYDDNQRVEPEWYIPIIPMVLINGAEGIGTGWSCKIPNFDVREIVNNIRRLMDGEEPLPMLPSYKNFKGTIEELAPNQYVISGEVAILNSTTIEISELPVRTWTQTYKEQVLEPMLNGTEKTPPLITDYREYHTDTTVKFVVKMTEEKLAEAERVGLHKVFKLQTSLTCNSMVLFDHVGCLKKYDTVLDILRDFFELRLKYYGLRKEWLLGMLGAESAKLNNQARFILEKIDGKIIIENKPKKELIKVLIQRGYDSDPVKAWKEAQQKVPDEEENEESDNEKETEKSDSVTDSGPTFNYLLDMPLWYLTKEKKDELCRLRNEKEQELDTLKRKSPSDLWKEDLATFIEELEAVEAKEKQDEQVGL
Chain of full-length TOP2A (P11388 whole entry): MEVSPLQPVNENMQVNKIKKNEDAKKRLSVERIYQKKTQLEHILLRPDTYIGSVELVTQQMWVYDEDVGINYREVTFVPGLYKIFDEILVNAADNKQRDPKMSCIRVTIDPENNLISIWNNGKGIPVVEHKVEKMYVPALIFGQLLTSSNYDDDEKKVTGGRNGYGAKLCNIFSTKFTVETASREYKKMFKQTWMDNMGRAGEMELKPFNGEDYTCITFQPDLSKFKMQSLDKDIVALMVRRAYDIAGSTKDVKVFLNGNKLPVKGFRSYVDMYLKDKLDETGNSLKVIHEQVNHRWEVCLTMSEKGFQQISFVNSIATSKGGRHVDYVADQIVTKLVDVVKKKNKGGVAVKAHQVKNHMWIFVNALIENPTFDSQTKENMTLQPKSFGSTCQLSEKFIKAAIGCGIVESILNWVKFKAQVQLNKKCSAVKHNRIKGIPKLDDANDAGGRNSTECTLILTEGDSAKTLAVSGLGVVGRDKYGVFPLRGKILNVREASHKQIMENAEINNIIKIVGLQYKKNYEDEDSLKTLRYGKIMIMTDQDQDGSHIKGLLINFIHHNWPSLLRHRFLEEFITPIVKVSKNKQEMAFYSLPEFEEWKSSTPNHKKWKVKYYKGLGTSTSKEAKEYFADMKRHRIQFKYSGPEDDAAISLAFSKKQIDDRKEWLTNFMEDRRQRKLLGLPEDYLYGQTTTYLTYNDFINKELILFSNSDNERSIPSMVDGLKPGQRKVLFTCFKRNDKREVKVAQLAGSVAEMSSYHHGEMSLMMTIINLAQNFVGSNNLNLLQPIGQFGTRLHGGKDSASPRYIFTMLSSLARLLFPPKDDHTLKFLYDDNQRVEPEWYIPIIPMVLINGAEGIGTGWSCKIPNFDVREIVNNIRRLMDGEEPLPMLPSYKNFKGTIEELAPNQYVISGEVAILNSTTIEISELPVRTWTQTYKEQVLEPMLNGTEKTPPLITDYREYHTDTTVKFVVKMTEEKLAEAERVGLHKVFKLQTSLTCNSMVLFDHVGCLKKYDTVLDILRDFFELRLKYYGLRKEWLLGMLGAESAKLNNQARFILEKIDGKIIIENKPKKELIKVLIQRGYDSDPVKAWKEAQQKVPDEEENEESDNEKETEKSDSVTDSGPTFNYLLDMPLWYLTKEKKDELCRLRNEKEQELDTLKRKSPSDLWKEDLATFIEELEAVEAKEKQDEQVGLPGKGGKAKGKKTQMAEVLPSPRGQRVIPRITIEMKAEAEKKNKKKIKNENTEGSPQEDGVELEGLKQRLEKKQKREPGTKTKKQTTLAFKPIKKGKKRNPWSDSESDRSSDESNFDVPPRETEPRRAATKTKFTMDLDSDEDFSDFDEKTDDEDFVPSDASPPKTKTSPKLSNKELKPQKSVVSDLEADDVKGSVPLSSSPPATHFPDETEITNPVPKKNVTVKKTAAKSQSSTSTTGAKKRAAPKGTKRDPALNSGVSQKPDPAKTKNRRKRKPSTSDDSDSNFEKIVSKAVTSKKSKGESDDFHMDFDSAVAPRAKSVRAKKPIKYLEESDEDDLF

solubility at 1 h (Solubility by LC/MS/MS; RPMI1640 plus 5% charcoal-stripped serum, plasma or biological fluid, cell culture media with serum, read-out: Solubility Media/FBS): 485 µM | solubility at 1 h (Solubility by LC/MS/MS; methanol, organic solvent or mixture, methanol, read-out: Solubility Methanol): > 1000 µM | solubility at 1 h (Solubility by LC/MS/MS; phosphate-buffered saline, aqueous buffer, PBS, read-out: Solubility PBS): 142 µM (≈ 47.8 µg/mL) | IC50 (TOP2B [1]): ~3.8 µM | IC50 (TOP2B [2]): 7.5 µM | Fluorescence induced by the ethidium bromide/DNA complex reduced by increasing doses (DNA intercalation) (salmon sperm DNA): not | Kd (human TOP2A(431-1193) [3]): ~87 µM | half-life at 1 uM (in vitro): > 16.7 h | microsomal CLint at 1 uM (in vitro): 2 µL/min/mg | Block of TOP2B-DNA oligo complex formation (EMSA) (full-length TOP2B [7]): block
Compound: Nc1cc(Nc2ccccc2)ccc1NC(=O)c1ccc[nH]c1=S [T638]
Effect on TOP2A-DNA interaction (FP) (human TOP2A(431-1193) [4]): reduced the TOP2A–DNA interaction in a dose-dependent manner | inhibition at 100 µM [5]: 100% | Cytotoxicity (LDH release), in words (K562 cells): not observed | inhibition at 100 µM [6]: 100% | Maximum cell proliferation inhibition (K562 leukemia cells; 48 h): 100% | Maximum cell proliferation inhibition (K562 leukemia cells; 72 h): 100% | Prevention of etoposide-induced DNA cleavage, TOP2A (full-length TOP2A): did prevent etoposide-induced DNA cleavage | Prevention of etoposide-induced DNA cleavage, TOP2B (full-length TOP2B [8]): did prevent etoposide-induced DNA cleavage
